Read-outs that look alike come from different tables or passages of the source.
Tests used:
[1] = target: T1, human recombinant 5-HT2A receptor (Homo sapiens, UniProt P28223); assay: Test Example 1-2: 5-HT2A receptor binding inhibition test ([3H]-Ketanserin; non-specific ligand Ketanserin)
T1 construct: expressed in transfected cells; host or cells: Jump-In HEK cells (membrane preparation)
How it was run: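 Ki values were derived from dose-response inhibition of [3H]-ketanserin binding; nonspecific binding was set with 500 µmol/L ketanserin, and Kd was set for each membrane lot from Scatchard saturation plots. Incubation lasted 1.5 h at room temperature (25 °C). Bound radioligand was harvested on Tris-HCl (pH 7.4)-presoaked filters and counted.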

[2] = target: T2, human recombinant 5-HT2C receptor (Homo sapiens, UniProt P28335); assay: Test Example 2: 5-HT2C receptor binding inhibition test ([3H]-Mesulergine; non-specific ligand Serotonin HCl)
T2 construct: expressed in transfected cells; host or cells: Jump-In HEK cells (membrane preparation)
T2 sequence (P28335 33-458): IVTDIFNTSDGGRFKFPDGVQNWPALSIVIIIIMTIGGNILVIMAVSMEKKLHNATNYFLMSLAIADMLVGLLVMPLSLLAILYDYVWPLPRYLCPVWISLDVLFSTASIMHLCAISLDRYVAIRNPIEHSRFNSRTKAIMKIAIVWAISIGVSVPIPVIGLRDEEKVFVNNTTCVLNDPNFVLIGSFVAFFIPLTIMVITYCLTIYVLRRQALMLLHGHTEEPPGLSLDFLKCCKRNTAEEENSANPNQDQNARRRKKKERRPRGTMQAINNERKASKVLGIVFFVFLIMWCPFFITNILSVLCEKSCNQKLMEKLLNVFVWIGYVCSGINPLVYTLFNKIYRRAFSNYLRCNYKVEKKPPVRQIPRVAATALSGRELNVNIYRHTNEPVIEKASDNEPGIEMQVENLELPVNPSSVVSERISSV
How it was run: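 Ki values come from dose-response curves of [3H]-mesulergine displacement from human 5-HT2C membranes after 2 h at 37°C, scored by scintillation counting of filter-bound radioactivity. Serotonin HCl (500 µmol/L) set non-specific binding; Kd per membrane lot was taken from Scatchard plots.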

[3] = [3H]-Ketanserin, non-specific binding with 500 µmol/L Ketanserin, room temperature (25°C), 1.5 hours, read-out: h 5-HT2A Ki
[4] = human serotonin 5-HT2C receptor binding activity
[5] = [3H]-Mesulergine, non-specific binding with 500 µmol/L Serotonin HCl, 37°C, 2 hours

T1 sequence (P28223 whole entry): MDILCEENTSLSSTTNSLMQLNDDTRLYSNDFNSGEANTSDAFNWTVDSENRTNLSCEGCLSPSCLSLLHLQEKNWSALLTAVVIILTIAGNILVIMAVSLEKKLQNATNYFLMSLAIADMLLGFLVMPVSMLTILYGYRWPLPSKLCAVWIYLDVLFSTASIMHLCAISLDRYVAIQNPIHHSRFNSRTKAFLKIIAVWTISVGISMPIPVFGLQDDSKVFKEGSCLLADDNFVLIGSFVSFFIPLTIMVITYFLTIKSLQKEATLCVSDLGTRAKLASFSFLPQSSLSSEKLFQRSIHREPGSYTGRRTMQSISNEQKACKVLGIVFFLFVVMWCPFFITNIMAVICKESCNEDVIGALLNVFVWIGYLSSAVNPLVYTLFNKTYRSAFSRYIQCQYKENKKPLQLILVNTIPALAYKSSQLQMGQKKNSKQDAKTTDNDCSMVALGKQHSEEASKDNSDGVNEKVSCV

Structure (SMILES)	Ki [1, 3]	Ki [2, 4]	Ki [1]	Ki [2, 5]
COCc1nc(C)c(-c2cc(Nc3ncc(OC(F)(F)F)cc3Cl)ncc2OCCO)c(C)n1 [Compound I-200]	1.49 nM	1.9 nM	–	–
Cn1ncc(F)c1-c1cc(Nc2ncc(C(F)(F)F)cc2F)cnc1OCCO [Compound I-127]	0.271 nM	–	–	–
Cc1nc(CO[C@@H]2CCOC2)nc(C)c1-c1cc(Nc2ncc(C(F)(F)F)cc2Cl)ncc1OCCO [Compound I-378]	2.43 nM	1.51 nM	–	–
Cn1ncc(Br)c1-c1cc(Nc2ncc(C(F)(F)F)cc2F)ccc1OCCO [Compound I-006]	–	–	0.253 nM	0.223 nM
Cc1cnn(C)c1-c1cc(Nc2ncc(C(F)(F)F)cc2F)ccc1OCCO [Compound I-008]	0.338 nM	–	–	1.05 nM
Cc1nc(COC2COC2)nc(C)c1-c1cc(Nc2ncc(C(F)(F)F)cc2Cl)ncc1OCCO [Compound I-376]	2.24 nM	2.74 nM	–	–
COCc1nc(C)c(-c2nc(Nc3ccc(C(F)(F)F)c(C)n3)c(F)cc2OCCO)c(C)n1 [Compound I-247]	1.74 nM	1.62 nM	–	–

— patent publication EP4631938A1, “NITROGEN-CONTAINING HETEROCYCLE WITH SEROTONIN RECEPTOR-BINDING ACTIVITY AND CARBOCYCLIC DERIVATIVE” (Shionogi & Co., Ltd, priority 2022, dated 2024)
